Measurements from US8431596B2 (Cancer Research Technology Limited, priority 2007, dated 2013).

Tests used:
[1] = target: T1, AXL (human catalytic domain) (Homo sapiens, UniProt P30530); test: AXL (human catalytic domain) Enzyme Activity Assay (IMAP fluorescence polarisation); type: biochemical
T1 construct: purchased Upstate Ltd. 14-512
T1 sequence (P30530 473-894): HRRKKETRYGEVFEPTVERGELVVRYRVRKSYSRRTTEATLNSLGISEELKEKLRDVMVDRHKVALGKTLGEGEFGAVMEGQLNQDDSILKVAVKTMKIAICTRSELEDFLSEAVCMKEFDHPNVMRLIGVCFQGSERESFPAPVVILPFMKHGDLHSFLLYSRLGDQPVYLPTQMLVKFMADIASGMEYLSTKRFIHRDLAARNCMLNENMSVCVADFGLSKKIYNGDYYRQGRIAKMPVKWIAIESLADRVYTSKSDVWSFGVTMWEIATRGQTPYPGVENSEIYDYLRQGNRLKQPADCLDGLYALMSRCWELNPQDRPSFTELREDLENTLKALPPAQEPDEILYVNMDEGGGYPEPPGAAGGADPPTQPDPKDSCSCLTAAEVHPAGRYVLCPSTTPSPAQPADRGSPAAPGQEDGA
How it was run: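 Recombinant human AXL isoform 1 (aa473-894; final 15 nM) phosphorylated 100 nM fluorescein-CSK-tide with 150 μM ATP (KM) in HEPES pH 7.0/MgCl2/DTT buffer for 60 min at room temperature. IMAP fluorescence polarisation read after overnight binding; IC50 from 10-point 4-parameter logistic fits.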

[2] = system: Axl activation via the downstream phosphorylation of Akt (serine 473); test: AXL Inhibition Cell Based ELISA Assay (FACE kit, Gas6-stimulated MDA-MB-231 cells); conditions: Homo sapiens, first data set, Gas6 200 ng/ml, pS473 Akt
Procedure: AXL Inhibition Cell Based ELISA Assay
This cell based ELISA assay is a simple cell-based method used to monitor activation of proteins by phosphorylation. The Active Motif, Fast Activated Cell-based ELISA (FACE) kit (Active Motif Cat No: 48120) was used in this case to monitor the inhibition, by test compounds, of Axl activation via the downstream phosphorylation of Akt (serine 473). In this system, cells are cultured in 96 well plates and treated with test compounds and Axl is activated by the introduction of Gas6 (Axl ligand). The inhibition of Axl can be directly assessed via the reduction of pS^473 Akt levels.
Active Motif FACE Kit reagents (Active Motif Cat. No: 48120(AKT)).
10% hydrogen peroxide (Sigma H1009).
10% Sodium azide (Sigma 7128).
37% Formaldehyde (Sigma F8775).
Axl/Fc conjugate (R&D Systems 154-AL).
Recombinant mouse Gas6 (R&D Systems 986-GS-025).
All cell incubations were carried out in humidified incubators set at 5% CO2 and 37° C. […]
Immunostaining (carried out as outlined in FACE kit protocol). […] 100 μL developing solution was added to each well and monitored for colour change to medium to dark blue (2 to 20 minutes). 100 μL of stop solution was then added and absorbance was read at 450 nm within 5 minutes of addition.
Crystal Violet cell staining. After reading absorbance at 450 nm, the plates were washed twice with 200 μL wash buffer and twice with 200 μL PBS. […]

[3] = first data set, recombinant AXL isoform 1 aa473-894, 150 μM ATP
[4] = further data set (WW-001 through WW-169, XX-001 through XX-469, YY-001 through YY-016, ZZ-001 through ZZ-003), 150 μM ATP

| SMILES | IC50 [1, 3] | IC50 [1, 4] | IC50 [2] |
| --- | --- | --- | --- |
| CN1CCOc2cc(-c3cccc4nc(NC(=O)C5CC5)nn34)ccc21 [WW-104] | < 1000 nM | 100 to 1000 nM | 8490 nM |
| Cn1cc(-c2cccc3nc(NC(=O)C4CC4)nn23)cn1 [WW-064] | < 1000 nM | 100 to 1000 nM | – |
| COc1cccc(COc2ccc(-c3cccc4nc(NC(=O)C5CC5)nn34)cc2)c1 [WW-123, Cyclopropanecarboxylic acid {5-[4-(3-methoxy-benzyloxy)-phenyl]-[1,2,4]triazolo[1,5-a]pyridin-2-yl}-amide] | 1000 to 10000 nM | 1000 to 10000 nM | – |
| COc1ccccc1COc1cccc(-c2cccc3nc(Nc4ccc(OCCN5CCCC5)cc4)nn23)c1 [XX-338] | – | 1000 to 10000 nM | – |
| COc1cc(-c2cccc3nc(NC(=O)C4CC4)nn23)ccc1F [WW-098] | 1000 to 10000 nM | 1000 to 10000 nM | – |
| CC(C)Oc1cccc(-c2cccc3nc(NC(=O)C4CC4)nn23)c1 [WW-152] | 1000 to 10000 nM | 1000 to 10000 nM | – |
| COc1ccc(-c2nc(COc3cccc(-c4cccc5nc(Nc6ccc(OCCN7CCCC7)cc6)nn45)c3)no2)cc1 [XX-461] | – | 1000 to 10000 nM | – |
| CN(C)c1ccc(-c2cccc3nc(Nc4ccc(OCCN5CCCC5)cc4)nn23)cc1 [XX-206] | – | 100 to 1000 nM | – |
| CC(C)(C)c1ccc(-c2cccc3nc(NC(=O)C4CC4)nn23)cc1 [WW-139] | 1000 to 10000 nM | 1000 to 10000 nM | – |
| CC(C)(C)CNC(=O)Cn1cc(-c2cccc3nc(Nc4ccc(OCCN5CCCC5)cc4)nn23)cn1 [XX-092, N-(2,2-Dimethyl-propyl)-2-(4-{2-[4-(2-pyrrolidin-1-yl-ethoxy)-phenylamino]-[1,2,4]triazolo[1,5-a]pyridin-5-yl}-pyrazol-1-yl)-acetamide] | – | 1000 to 10000 nM | – |
| c1cc(-c2ccc(Cn3cccn3)cc2)n2nc(Nc3ccc(OCCN4CCCC4)cc3)nc2c1 [XX-270] | – | 100 to 1000 nM | – |
| O=C(CN1CCCC1)Nc1cccc(Nc2nc3cccc(-c4ccc5c(c4)OCCO5)n3n2)c1 [XX-107] | – | 100 to 1000 nM | – |
| CCCCS(=O)(=O)NCc1cccc(-c2cccc3nc(Nc4ccc(OCCN5CCCC5)cc4)nn23)c1 [XX-324, Butane-1-sulfonic acid 3-{2-[4-(2-pyrrolidin-1-yl-ethoxy)-phenylamino]-[1,2,4]triazolo[1,5-a]pyridin-5-yl}-benzylamide] | – | 1000 to 10000 nM | – |
| CCn1cc(-c2cccc3nc(Nc4ccc(OCCN5CCCC5)cc4)nn23)cn1 [XX-315] | – | 100 to 1000 nM | – |
| O=S(=O)(c1ccc(Nc2nc3cccc(-c4ccc5c(c4)OCCO5)n3n2)cc1)N1CCNCC1 [XX-145] | – | 100 to 1000 nM | – |
| c1coc(CSCCn2cc(-c3cccc4nc(Nc5ccc(OCCN6CCCC6)cc5)nn34)cn2)c1 [XX-427] | – | 100 to 1000 nM | – |
| NCCNc1ccc(-c2cccc3nc(NC(=O)C4CC4)nn23)cc1 [WW-158, Cyclopropanecarboxylic acid {5-[4-(2-amino-ethylamino)-phenyl]-[1,2,4]triazolo[1,5-a]pyridin-2-yl}-amide] | 1000 to 10000 nM | 1000 to 10000 nM | – |
| CC(=O)Nc1ccc(-c2cccc3nc(Nc4ccc(OCCN5CCCC5)cc4)nn23)cc1 [XX-205] | – | 100 to 1000 nM | – |

Now from value to molecule:

| IC50 [1, 3] | IC50 [1, 4] | IC50 [2] | SMILES |
| --- | --- | --- | --- |
| < 1000 nM | ≤ 100 nM | 1030 nM | CCNCCOc1ccc(Nc2nc3cccc(-c4ccc5c(c4)OCCO5)n3n2)cc1 [XX-070] |
| – | 100 to 1000 nM | – | c1cc(-c2ccc(-c3cn[nH]c3)cc2)n2nc(Nc3ccc(OCCN4CCCC4)cc3)nc2c1 [XX-187] |
| – | 100 to 1000 nM | – | Fc1ccccc1CNc1cccc(-c2cccc3nc(Nc4ccc(OCCN5CCCC5)cc4)nn23)c1 [XX-238] |
| 1000 to 10000 nM | 1000 to 10000 nM | – | O=C(Nc1nc2cccc(-c3ccc(N4CCOCC4)nc3)n2n1)C1CC1 [WW-062] |
| 1000 to 10000 nM | 1000 to 10000 nM | – | CS(=O)(=O)c1ccc(-c2cccc3nc(NC(=O)C4CC4)nn23)cc1 [WW-014] |
| – | 100 to 1000 nM | – | Cn1cc(-c2ccc(-c3cccc4nc(Nc5ccc(OCCN6CCCC6)cc5)nn34)cc2)cn1 [XX-149] |
| – | ≤ 100 nM | – | CC[C@@H](COc1ccc(Nc2nc3cccc(-c4ccc(OC)cc4)n3n2)cc1)N1CCCC1 [XX-388] |
| – | 100 to 1000 nM | – | Cn1cc(-c2cccc(-c3cccc4nc(Nc5ccc(OCCN6CCCC6)cc5)nn34)c2)cn1 [XX-171] |
| 1000 to 10000 nM | 1000 to 10000 nM | – | O=C(Nc1nc2cccc(-c3cc[nH]c3)n2n1)C1CC1 [WW-149] |
| 1000 to 10000 nM | – | – | COc1ccc(-c2cccc3nc(Nc4ccc(OC)nc4)nn23)cc1 [XX-010] |
| – | 100 to 1000 nM | – | Oc1cccc(-c2cccc3nc(Nc4ccc(OCCN5CCCC5)cc4)nn23)c1 [XX-256, 3-{2-[4-(2-Pyrrolidin-1-yl-ethoxy)-phenylamino]-[1,2,4]triazolo[1,5-a]pyridin-5-yl}-phenol] |
| – | 100 to 1000 nM | – | CN1CCOc2cc(-c3cccc4nc(Nc5ccc(OCCN6CCCC6)cc5)nn34)ccc21 [XX-093] |
| – | 100 to 1000 nM | – | COc1ccc(-c2cccc3nc(Nc4ccc(C(=O)NCCN5CCCC5)s4)nn23)cc1 [XX-409] |
| – | ≤ 100 nM | – | CN(CCN1CCCC1)c1ccc(Nc2nc3cccc(-c4ccc5c(c4)OCCO5)n3n2)cc1 [XX-154] |
| < 1000 nM | 100 to 1000 nM | – | COc1ccc(-c2cccc3nc(Nc4ccc(OCCNCCN(C)C)cc4)nn23)cc1 [XX-027] |
| 1000 to 10000 nM | 1000 to 10000 nM | – | NC(=O)c1cccc(-c2cccc3nc(NC(=O)C4CC4)nn23)c1 [WW-015] |
| – | 100 to 1000 nM | – | CCN(CC)CCNS(=O)(=O)c1ccc(Nc2nc3cccc(-c4ccc5c(c4)OCCO5)n3n2)cc1 [XX-173] |
| – | ≤ 100 nM | – | CCN(CC)CCOc1ccc(Nc2nc3cccc(-c4ccc5c(c4)OCCO5)n3n2)cn1 [XX-162] |
| – | 100 to 1000 nM | – | C[C@H](CN)Oc1ccc(Nc2nc3cccc(-c4ccc5c(c4)OCCO5)n3n2)cc1 [XX-142] |
